In brackets after ≈: the same amount, converted by molar mass. Where two headings read alike, the source gives them in different places.
How the values were obtained:
[1] = tested on: Pseudomonas aeruginosa; assay: Antibacterial susceptibility testing (MIC), P. aeruginosa; assay type: cell-based; conditions: Pseudomonas aeruginosa, ATCC27853; strain ATCC 27853
Experimental: (§1) Bacterial strains used in this study for antibacterial susceptibility testing (Table S5) were propagated using standard microbiological procedures. Minimal inhibitory concentrations (MICs) were determined following a standard double-dilution method. MICs were recorded as the lowest concentration of the compound where no visible growth was observed. After plating the dilutions around the MIC or growing them in fresh MH media, minimal bactericidal concentration (MBC) was recorded as the lowest concentration of the compound at which no colonies were formed or no growth was observed, respectively. For S. pneumoniae MICs were determined by adapting the standard double-dilution method to anaerobic conditions and of this microorganism (use of Todd Hewitt Yeast extract with 200 U/mL of catalase and continuous monitoring of growth).

[2] = tested on: Klebsiella pneumoniae; assay: Antibacterial susceptibility testing (MIC), K. pneumoniae; assay type: cell-based; conditions: Klebsiella pneumoniae, ATCC700603, strain ATCC 700603
Experimental: as §1

[3] = tested on: Escherichia coli; assay: Antibacterial susceptibility testing (MIC/MBC), E. coli; assay type: cell-based; conditions: Escherichia coli
Experimental: (§2) Minimal inhibitory concentrations (MICs) were determined following a standard double-dilution method. […] For S. pneumoniae MICs were determined by adapting the standard double-dilution method to anaerobic conditions and of this microorganism (use of Todd Hewitt Yeast extract with 200 U/mL of catalase and continuous monitoring of growth).

[4] = tested on: Staphylococcus epidermidis; assay: Antibacterial susceptibility testing (MIC/MBC), S. epidermidis; assay type: cell-based; conditions: for MBC / MIC: Staphylococcus epidermidis
Experimental: as §2

[5] = tested on: Stenotrophomonas maltophilia; assay: Antibacterial susceptibility testing (MIC), S. maltophilia; assay type: cell-based
Experimental: as §1

[6] = tested on: Streptococcus pneumoniae; assay: Antibacterial susceptibility testing (MIC), S. pneumoniae; assay type: cell-based; conditions: strain 49619
Experimental: as §1

[7] = tested on: Streptococcus suis; assay: Antibacterial susceptibility testing (MIC), S. suis; assay type: cell-based; conditions: for MIC: Streptococcus suis, read-out: MIC Streptococcus suis 3881/S10, strain 3881/S10
Experimental: as §1

[8] = target: T1, E. coli PhoR (PhoR^E) (Escherichia coli, UniProt P08400); assay: In vitro autophosphorylation kinase assay with γ-32P-ATP, PhoR^E; assay type: biochemical; conditions: autophosphorylation, one time point (30 sec), 10% DMSO
T1 construct: The catalytic portion (DHp and CA domain) of E. coli PhoR (PhoR^E); made in house; host or cells: E. coli RIL
Method in brief: (§3)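 Autophosphorylation, initiated with γ-32P-ATP (0.1 μCi/μl; 0.03–0.06 μM ATP final), quenched with SDS/EDTA sample buffer, resolved by SDS-PAGE and quantified by phosphor-imaging. ≈4 μM kinase, fragments up to 20 mM, pH 8.5 Tris buffer with Mg2+; DMSO-matched ligand-free controls.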

[9] = Hemolysis assay; assay type: cell-based; conditions: human
Experimental: Hemolytic activity against human erythrocytes taken from a healthy donor was measured as previously described. The hemolysis experiments were carried out in accordance with the guidelines of the United Arab Emirates University (UAEU) Research Ethics Review Board. All experimental protocols were approved by the Research Ethics Review Board of UAEU and informed consent was obtained from all donors.

[10] = tested on: Staphylococcus aureus; assay: Antibacterial susceptibility testing (MIC/MBC), S. aureus; assay type: cell-based; conditions: Staphylococcus aureus; for MBC: DSM20231, strain DSM 20231, read-out: MBC S. aureus DSM 20231
Experimental: as §2

[11] = target: T2, S. pneumoniae WalK (Streptococcus pneumoniae, UniProt Q8DPL8); assay: In vitro autophosphorylation kinase assay with γ-32P-ATP, WalK; assay type: biochemical; conditions: autophosphorylation, one time point (30 sec), 10% DMSO
T2 construct: WalK (amino acids from 208 to 449); N-terminal His6-3C site of vector pOPINF (own knowledge of the vector); made in house; host or cells: E. coli RIL
Method in brief: as §3

[12] = tested on: Acinetobacter baumannii; assay: Antibacterial susceptibility testing (MIC), A. baumannii; assay type: cell-based
Experimental: as §1

[13] = ATCC25276, strain ATCC 25276, read-out: MIC E. coli ATCC 25276
[14] = strain CFT 073, read-out: MIC E. coli CFT 073
[15] = strain RP62A (biofilm producer), read-out: MIC S. epidermidis RP62A
[16] = clinical isolate B32/1, read-out: MIC S. maltophilia B32/1
[17] = ATCC reference strain 25293, read-out: MIC S. aureus 25293
[18] = MRSA clinical isolate 127/08, read-out: MIC S. aureus 127/08
[19] = MRSA clinical isolate 145/08, read-out: MIC S. aureus 145/08
[20] = MRSA clinical isolate 274/08, read-out: MIC S. aureus 274/08
[21] = MRSA, MRSA clinical isolate S908, read-out: MIC S. aureus S908
[22] = MRSA, MRSA clinical isolate T4/6, read-out: MIC S. aureus T4/6
[23] = MRSA, MRSA clinical isolate V4180, read-out: MIC S. aureus V4180
[24] = MRSA, summary over strains, read-out: MICs for the MRSA strains and S. aureus 25293
[25] = MDR clinical isolate NM8, read-out: MIC A. baumannii NM8

T1 sequence (P08400 210-425): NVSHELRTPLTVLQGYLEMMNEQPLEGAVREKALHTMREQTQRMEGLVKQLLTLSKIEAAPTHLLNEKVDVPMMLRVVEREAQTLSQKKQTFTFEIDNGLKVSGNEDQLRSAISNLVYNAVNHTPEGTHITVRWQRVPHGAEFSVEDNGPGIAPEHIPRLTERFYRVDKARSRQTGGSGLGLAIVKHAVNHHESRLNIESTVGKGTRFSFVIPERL
T2 sequence (Q8DPL8 208-449): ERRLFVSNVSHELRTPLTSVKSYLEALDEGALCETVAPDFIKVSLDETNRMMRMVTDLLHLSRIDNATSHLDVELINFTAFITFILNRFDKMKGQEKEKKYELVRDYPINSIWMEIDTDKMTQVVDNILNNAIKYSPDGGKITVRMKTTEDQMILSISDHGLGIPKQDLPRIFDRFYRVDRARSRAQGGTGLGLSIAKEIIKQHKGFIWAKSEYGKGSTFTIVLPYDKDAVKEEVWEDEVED

SMILES	MIC [1]	MIC [2]	MIC [3, 13]	MIC [3, 14]	MBC ([4]; DSM20044, strain DSM 20044)	MIC [4, 15]	MIC [5, 16]	MIC [6]	MIC [7]	MIC [10, 17]	MBC [10]	MIC [10, 18]	MIC [10, 19]	MIC [10, 20]	MIC [10, 21]	MIC [10, 22]	MIC [10, 23]	MIC [10, 24]	MIC [12, 25]	also measured
NCCc1ccc2c(c1)[nH]c1ccccc12 [F2.3]	> 500 µg/mL	> 500 µg/mL	> 500 µg/mL	> 500 µg/mL	63 µg/mL (≈ 300 µM)	125 µg/mL (≈ 594 µM)	> 500 µg/mL	4 µg/mL (≈ 19 µM)	> 500 µg/mL	125 µg/mL (≈ 594 µM)	> 500 µg/mL	250 µg/mL (≈ 1190 µM)	250 µg/mL (≈ 1190 µM)	> 500 µg/mL	250 µg/mL (≈ 1190 µM)	250 µg/mL (≈ 1190 µM)	250 µg/mL (≈ 1190 µM)	125 to 500 µg/mL (≈ 594 to 2380 µM)	> 500 µg/mL	MIC ([4]; DSM20044, strain DSM 20044, read-out: MIC S. epidermidis DSM 20044): 31 to 500 µg/mL (≈ 147 to 2380 µM); MIC ([4]; clinical isolate T7/3, read-out: MIC S. epidermidis T7/3): 31 µg/mL (≈ 147 µM); MIC ([4]; clinical isolate T37/8, read-out: MIC S. epidermidis T37/8): 125 µg/mL (≈ 594 µM); MIC ([4]; clinical isolate T6119, read-out: MIC S. epidermidis T6119): 125 µg/mL (≈ 594 µM); MIC ([4]; strain RP62A/1 (non-biofilm producer), read-out: MIC S. epidermidis RP62A/1): 125 µg/mL (≈ 594 µM); MIC ([4]; summary over strains, read-out: MICs for the S. epidermidis strains): 31 to 250 µg/mL (≈ 147 to 1190 µM); MIC S. epidermidis DSM 20044 ([4]; strain DSM 20044): 31 µg/mL (≈ 147 µM); IC50 ([8]; IC50 PhoR^E): > 2000 µM; HC50 ([9]; erythrocytes from a healthy donor, up to 500 μg/ml, three independent incubations, read-out: LC50 hemolysis): > 500 µg/mL; IC50 ([11]; IC50 WalK): > 2000 µM
CC(C)NCC(O)COc1cccc2[nH]c3ccccc3c12 (stereo not shown) [F2.4]	> 500 µg/mL	> 500 µg/mL	500 µg/mL (≈ 1680 µM)	500 µg/mL (≈ 1680 µM)	500 µg/mL (≈ 1680 µM)	> 500 µg/mL	500 µg/mL (≈ 1680 µM)	64 µg/mL (≈ 214 µM)	125 µg/mL (≈ 419 µM)	125 µg/mL (≈ 419 µM)	250 µg/mL (≈ 838 µM)	500 µg/mL (≈ 1680 µM)	250 µg/mL (≈ 838 µM)	500 µg/mL (≈ 1680 µM)	500 µg/mL (≈ 1680 µM)	> 500 µg/mL	500 µg/mL (≈ 1680 µM)	125 to 500 µg/mL (≈ 419 to 1680 µM)	500 µg/mL (≈ 1680 µM)	MBC ([3]; strain CFT 073, read-out: MBC E. coli CFT 073): 500 µg/mL (≈ 1680 µM); MIC ([5]; clinical isolate B5/5, read-out: MIC S. maltophilia B5/5): > 500 µg/mL; MIC ([5]; clinical isolate B6/2, read-out: MIC S. maltophilia B6/2): 500 µg/mL (≈ 1680 µM); MIC ([5]; summary over strains, read-out: MICs for S. maltophilia strains): 500 µg/mL (≈ 1680 µM); MIC Streptococcus suis 3881/S10 ([7]; strain 3881/S10): 250 µg/mL (≈ 838 µM); IC50 ([8]; read-out: IC50 PhoR^E): > 2000 µM; HC50 [9]: > 500 µg/mL; IC50 ([11]; read-out: IC50 WalK): > 2000 µM; MIC ([12]; MDR clinical isolate NM35, read-out: MIC A. baumannii NM35): > 500 µg/mL; MIC ([12]; MDR clinical isolate NM75, read-out: MIC A. baumannii NM75): > 500 µg/mL; MIC ([12]; MDR clinical isolate NM109, read-out: MIC A. baumannii NM109): 500 µg/mL (≈ 1680 µM); MIC ([12]; MDR clinical isolate NM124, read-out: MIC A. baumannii NM124): 500 µg/mL (≈ 1680 µM); MIC ([12]; summary over strains, read-out: MICs for A. baumannii strains): 500 µg/mL (≈ 1680 µM)
